Source: patent publication US9636339B2, “Phenyl-dihydropyridine derivatives as aldosterone synthase inhibitors” (Hoffmann-La Roche Inc., priority 2013, dated 2017)

Columns and labels:
[1] = tested on: rats with experimental heart failure; settings: rat, in vivo; cited from earlier work
[2] = tested on: rat model of chronic kidney disease; settings: cited from earlier work; for plasma aldosterone: FAD286: 4 weeks of treatment, spironolactone: 4 and 8 weeks of treatment; for angiotensin II and salt-stimulated PAI-1 mRNA expression: aorta and heart; for renal effects of angiotensin II and high salt (albuminuria, azotemia, renovascular hypertrophy, glomerular injury, PAI-1, osteopontin mRNA, tubulointerstitial fibrosis): rat, in vivo
[3] = tested on: patients with primary aldosteronism; settings: oral; cited from earlier work
[4] = biological target: human CYP11B2 (Homo sapiens (Human), UniProt P19099); assay: G-402 cellular enzyme assay, human CYP11B2 (aldosterone release); format: cell-based; settings: G-402 cells, 1 μM Deoxycorticosterone
Text: (§1) Herein we identified the use of the G-402 cell line as a host cell to ectopically express (transiently or stably) enzymes of the CYP11 family. Specifically we developed stable G-402 cells expressing ectopically human CYP11B1, human CYP11B2, human CYP11A1, cynmolgus CYP11B1 or cynomolgus CYP11B2 enzyme activity. Importantly the identified cell line G-402 expresses co-factors (adrenodoxin and adrenodoxin reductase) important for the activity of the CYP11 family and no relevant enzyme activity of the CYP11 family (in comparison to H295R cells) was detected in these cells. Therefore the G-402 cell line is uniquely suited as a host cell for the ectopic expression of enzymes from the CYP11 family. G-402 cells can be obtained from ATCC (CRL-1440) and were originally derived from a renal leiomyoblastoma.
(§2) The expression plasmids contains the ORF for either human/cyno CYP11B1 or CYP11B2 under the control of a suitable promoter (CMV-promoter) and a suitable resistance marker (neomycin). Using standard techniques the expression plasmid is transfected into G-402 cells and these cells are then selected for expressing the given resistance markers. Individual cell-clones are then selected and assessed for displaying the desired enzymatic activity using 11-Deoxycorticosterone (Cyp11B2) or 11-Deoxycortisol (Cyp11B1) as a substrate.
(§3) G-402 cells expressing CYP11 constructs were established as described above and maintained in McCoy's 5a Medium Modified, ATCC Catalog No. 30-2007 containing 10% FCS and 400 μg/ml G418 (Geneticin) at 37° C. under an atmosphere of 5% CO2/95% air. Cellular enzyme assays were performed in DMEM/F12 medium containing 2.5% charcoal treated FCS and appropriate concentration of substrate (0.3-10 uM 11-Deoxycorticosterone, 11-Deoxycortisol or Corticosterone). For assaying enzymatic activity, cells were plated onto 96 well plates and incubated for 16 h. An aliquot of the supernatant is then transferred and analyzed for the concentration of the expected product (Aldosterone for CYP11B2; Cortisol for CYP11B1). The concentrations of these steroids can be determined using HTRF assays from CisBio analyzing either Aldosterone or Cortisol.
(§4) Inhibition of the release of produced steroids can be used as a measure of the respective enzyme inhibition by test compounds added during the cellular enzyme assay. The dose dependent inhibition of enzymatic activity by a compound is calculated by means of plotting added inhibitor concentrations (x-axes) vs. measured steroid/product level (y-axes). The inhibition is then calculated by fitting the following 4-parameter sigmoidal function (Morgan-Mercer-Flodin (MMF) model) to the raw data points using the least squares method:
(§5) [formula] wherein, A is the maximum y value, B is the EC50 factor determined using XLFit, C is the minimum y value and D is the slope value.
(§6) EC50 values for compounds claimed herein were tested with the G402-based assay system described. Cyp11B2 enzyme activity was tested in presence of 1 μM Deoxycorticosterone and variable amounts of inhibitors; Cyp11B1 enzyme activity was tested in presence of 1 μM Deoxycortisol and variable amounts of inhibitors.

[5] = biological target: human CYP11B1 (Homo sapiens (Human), UniProt P15538); assay: G-402 cellular enzyme assay, human CYP11B1 (cortisol release); format: cell-based; settings: G-402 cells, 1 μM Deoxycortisol
Text: as §1, §2, §3, §4, §5, §6

human CYP11B1, sequence (P15538 25-503): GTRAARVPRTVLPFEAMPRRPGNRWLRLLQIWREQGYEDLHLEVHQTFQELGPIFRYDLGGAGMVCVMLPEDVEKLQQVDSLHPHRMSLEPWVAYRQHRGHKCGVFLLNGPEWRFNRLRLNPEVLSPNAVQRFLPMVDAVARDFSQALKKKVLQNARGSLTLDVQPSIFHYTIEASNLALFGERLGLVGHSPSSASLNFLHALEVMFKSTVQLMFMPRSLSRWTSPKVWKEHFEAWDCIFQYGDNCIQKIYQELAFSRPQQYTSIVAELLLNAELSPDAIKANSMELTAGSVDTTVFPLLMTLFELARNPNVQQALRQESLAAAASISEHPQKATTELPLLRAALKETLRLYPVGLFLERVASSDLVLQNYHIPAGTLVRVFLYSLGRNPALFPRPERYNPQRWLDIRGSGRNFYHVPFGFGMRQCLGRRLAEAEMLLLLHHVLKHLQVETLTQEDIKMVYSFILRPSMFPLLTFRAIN
human CYP11B2, sequence (P19099 25-503): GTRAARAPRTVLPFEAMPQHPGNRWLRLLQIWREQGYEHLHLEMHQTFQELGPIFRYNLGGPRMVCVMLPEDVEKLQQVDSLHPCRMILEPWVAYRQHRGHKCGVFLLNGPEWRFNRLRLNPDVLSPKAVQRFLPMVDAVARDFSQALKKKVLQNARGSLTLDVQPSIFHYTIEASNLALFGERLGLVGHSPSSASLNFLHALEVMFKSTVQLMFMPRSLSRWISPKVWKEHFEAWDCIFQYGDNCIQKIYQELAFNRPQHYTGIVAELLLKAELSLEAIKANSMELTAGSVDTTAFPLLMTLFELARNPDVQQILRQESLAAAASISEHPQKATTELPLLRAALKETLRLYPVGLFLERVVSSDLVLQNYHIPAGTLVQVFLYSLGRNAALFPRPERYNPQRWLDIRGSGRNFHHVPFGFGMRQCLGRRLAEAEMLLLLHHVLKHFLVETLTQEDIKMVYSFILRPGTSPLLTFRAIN

Compound	EC50 [4] [nM]	EC50 [5] [nM]	further results
N#Cc1ccc([C@H]2CCCc3cncn32)cc1 [FAD286]			blood pressure and cardiovascular function and structure [1]: improved; kidney function and morphology [1]: improve; plasma aldosterone [2]: reduced; angiotensin II and salt-stimulated PAI-1 mRNA expression [2]: not; renal effects of angiotensin II and high salt (albuminuria, azotemia, renovascular hypertrophy, glomerular injury, PAI-1, osteopontin mRNA, tubulointerstitial fibrosis) [2]: prevented
CC(=O)S[C@@H]1CC2=CC(=O)CC[C@]2(C)[C@H]2CC[C@@]3(C)[C@@H](CC[C@@]34CCC(=O)O4)[C@H]12 [spironolactone]			plasma aldosterone [2]: increased; angiotensin II and salt-stimulated PAI-1 mRNA expression [2]: enhanced; renal effects of angiotensin II and high salt (albuminuria, azotemia, renovascular hypertrophy, glomerular injury, PAI-1, osteopontin mRNA, tubulointerstitial fibrosis) [2]: prevented
N#Cc1ccc([C@H]2CCc3cncn32)c(F)c1 [LCI699]			blood pressure [3]: mildly decreased; circulating aldosterone levels [3]: significantly lower; hypokalemia [3]: corrected
COCCNC(=O)CC1CCc2c(-c3ccc(C(F)(F)F)c(F)c3)cncc21 (racemic) [Example 7, (rac)-2-[4-[3-Fluoro-4-(trifluoromethyl)phenyl]-6,7-dihydro-5H-cyclopenta[c]pyridin-7-yl]-N-(2-methoxyethyl)acetamide]	32	582	
CNC(=O)CC1CCc2c(-c3ccc(C(F)(F)F)c(F)c3)cncc21 (racemic) [Example 2, (rac)-2-[4-[3-Fluoro-4-(trifluoromethyl)phenyl]-6,7-dihydro-5H-cyclopenta[c]pyridin-7-yl]-N-methyl-acetamide]	17	199	

Continued, in another order:

EC50 [4] [nM]	EC50 [5] [nM]	Compound	further results
20	152	O=C(CC1CCc2c(-c3ccc(C(F)(F)F)c(F)c3)cncc21)N1CCOCC1 (racemic) [Example 9, (rac)-2-[4-[3-Fluoro-4-(trifluoromethyl)phenyl]-6,7-dihydro-5H-cyclopenta[c]pyridin-7-yl]-1-morpholino-ethanone]	
2	10	O=C(CC1CCc2c(-c3ccc(C(F)(F)F)c(F)c3)cncc21)N1CCCCC1 (racemic) [Example 8, (rac)-2-[4-[3-Fluoro-4-(trifluoromethyl)phenyl]-6,7-dihydro-5H-cyclopenta[c]pyridin-7-yl]-1-(1-piperidyl)ethanone]	
37	448	O=C(CC1CCCc2c(-c3ccc(C(F)(F)F)cc3F)cncc21)NC1CC1 (racemic) [Example 30, (rac)-N-Cyclopropyl-2-[4-[2-fluoro-4-(trifluoromethyl)phenyl]-5,6,7,8-tetrahydroisoquinolin-8-yl]acetamide]	
29	745	CCN(C(=O)CC1CCc2c(-c3ccc(C(F)(F)F)cc3F)cncc21)C1CC1 (racemic) [Example 17, (rac)-N-Cyclopropyl-N-ethyl-2-[4-[2-fluoro-4-(trifluoromethyl)phenyl]-6,7-dihydro-5H-cyclopenta[c]pyridin-7-yl]acetamide]	
18	1310	CC(C)N(C)C(=O)CC1CCc2c(-c3ccc(C(F)(F)F)cc3F)cncc21 (racemic) [Example 15, (rac)-2-[4-[2-Fluoro-4-(trifluoromethyl)phenyl]-6,7-dihydro-5H-cyclopenta[c]pyridin-7-yl]-N-isopropyl-N-methyl-acetamide]	
